Assay results as given in patent US20250340563A1, “FUSED PYRIDAZINE DERIVATIVES AS NLRP3 INHIBITORS” (Takeda Pharmaceutical Company Limited, priority 2022, published 2025).
Blank lines part the entries; values can stand above or below the compound they belong to.

How the values were obtained:
[1] = test system: NF-κB pathway; test: TNF-α assay in IFN-γ-differentiated, LPS-stimulated THP-1 cells (ELISA); assay type: cell-based; settings: Homo sapiens, 50 ng/mL LPS, 3 hours
Description: Monocytic THP-1 cells (ATCC: TIB-202) are maintained in accordance with the provider's instructions in RPMI media (Life Technologies, Cat #A10491-01); RPMI is supplemented with 10% heat inactivated fetal bovine serum (Hyclone Cat #SH30396.03). The cells are differentiated into macrophages by the addition of 25 ng/mL IFN-γ for 24 hours at 37° C./5% CO2. Media is exchanged with fresh media with no FBS. The cells are plated at 40,000 cells per well in 384-well flat-bottom cell culture plates (Costar 3764) containing compounds (added in 1:1000) in a 1:3.16 serial dilution series in DMSO and are incubated for 30 minutes at 37° C./5% CO2. The NF-κB pathway is activated with the addition of 50 ng/mL LPS and the cells are incubated for 3 hours at 37° C./5% CO2. At the end of the incubation period, supernatant (40 μL) is removed, and […] are monitored using an ELISA (Human TNF-α ELISA, R&D systems, Cat #DY210) according to the manufacturer's instructions.
The IC50 values are calculated from a plot of percentage of inhibition versus the inhibitor concentration by a logistics curve fit according to: Y=[Bottom+(Top−Bottom)]/(1+10^[(Log IC50−X)·Hill Slope], where Y is the % inhibition at the inhibitor concentration, X, “Bottom” is the lowest inhibition value, i.e. 0%, “Top” is the maximum inhibition value, i.e. 100%, and the “Hill Slope” describes the slope of the sigmoidal curve between the “Bottom” and “Top” values. The curve fitting was conducted with internally developed software.

[2] = target: NLRP3 inflammasome (Homo sapiens, UniProt Q96P20); test: IL-1β assay in IFN-γ-differentiated, LPS-primed, ATP-activated THP-1 cells (ELISA); assay type: cell-based; settings: 50 ng/mL LPS priming, 2.5 mM ATP activation, 2 hours
Summary of the method: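 THP-1 cells differentiated with 25 ng/mL IFN-γ for 24 h, then primed with 50 ng/mL LPS for 24 h in serum-free medium. After 30 min compound preincubation (1:3.16 dilution series), inflammasome activated with 2.5 mM ATP for 2 h at 37 °C. Supernatant IL-1β measured by ELISA; IC50 from logistic fit of % inhibition.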

Chain of NLRP3 inflammasome (Q96P20 whole entry): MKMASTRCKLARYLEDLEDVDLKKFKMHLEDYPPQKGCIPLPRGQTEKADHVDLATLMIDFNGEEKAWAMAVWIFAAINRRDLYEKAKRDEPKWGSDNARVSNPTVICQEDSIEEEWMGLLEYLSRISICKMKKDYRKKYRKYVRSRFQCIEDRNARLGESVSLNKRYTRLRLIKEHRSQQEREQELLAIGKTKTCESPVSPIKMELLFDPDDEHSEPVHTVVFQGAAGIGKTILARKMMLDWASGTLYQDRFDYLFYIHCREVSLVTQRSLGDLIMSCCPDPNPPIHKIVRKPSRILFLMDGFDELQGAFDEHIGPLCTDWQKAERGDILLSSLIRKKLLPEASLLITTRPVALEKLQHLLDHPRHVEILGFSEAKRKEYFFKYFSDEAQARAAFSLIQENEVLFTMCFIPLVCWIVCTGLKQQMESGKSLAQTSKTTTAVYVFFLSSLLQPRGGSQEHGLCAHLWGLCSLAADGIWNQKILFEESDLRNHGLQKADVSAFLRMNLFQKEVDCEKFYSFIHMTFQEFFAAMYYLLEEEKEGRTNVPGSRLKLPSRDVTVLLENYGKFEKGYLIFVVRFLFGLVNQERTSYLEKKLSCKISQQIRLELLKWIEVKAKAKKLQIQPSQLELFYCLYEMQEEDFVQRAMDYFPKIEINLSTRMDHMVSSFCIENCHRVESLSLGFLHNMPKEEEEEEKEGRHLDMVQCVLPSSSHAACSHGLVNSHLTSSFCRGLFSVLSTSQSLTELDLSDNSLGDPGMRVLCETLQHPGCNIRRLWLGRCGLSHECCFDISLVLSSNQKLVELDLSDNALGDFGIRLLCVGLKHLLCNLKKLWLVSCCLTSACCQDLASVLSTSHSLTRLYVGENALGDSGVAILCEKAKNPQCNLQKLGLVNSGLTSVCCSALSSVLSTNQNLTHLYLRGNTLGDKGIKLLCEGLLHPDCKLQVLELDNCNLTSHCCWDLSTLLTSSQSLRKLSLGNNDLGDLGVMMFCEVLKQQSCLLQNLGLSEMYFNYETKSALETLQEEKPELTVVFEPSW

Structure (SMILES): Cc1cc2c(NC3CCCN(C)C3)nnc(-c3ccc(Cl)cc3)c2cn1 (stereo not drawn) [Example 81, 4-(4-chlorophenyl)-7-methyl-N-(1-methylpiperidin-3-yl)pyrido[3,4-d]pyridazin-1-amine]
IC50 [1]: > 30000 nM
IC50 [2]: 67 nM

Structure (SMILES): COc1cc2c(NC3CCCN(C)C3)nnc(-c3ccc(Cl)cc3)c2cn1 (stereo not drawn) [Example 82, 4-(4-chlorophenyl)-7-methoxy-N-(1-methylpiperidin-3-yl)pyrido[3,4-d]pyridazin-1-amine]
IC50 [1]: > 10000 nM
IC50 [2]: 95 nM

Structure (SMILES): COc1cc2c(-c3ccc(Cl)cc3)nnc(NC3CCCN(C)C3)c2cn1 (stereo not drawn) [Example 83, 1-(4-chlorophenyl)-7-methoxy-N-(1-methylpiperidin-3-yl)pyrido[3,4-d]pyridazin-4-amine]
IC50 [1]: > 30000 nM
IC50 [2]: 82 nM

Structure (SMILES): COc1ccc(-c2nnc(N[C@@H]3CCCN(CCF)C3)c3cnccc23)cc1 [Example 84, (R)—N-(1-(2-fluoroethyl)piperidin-3-yl)-1-(4-methoxyphenyl)pyrido[3,4-d]pyridazin-4-amine]
IC50 [1]: > 30000 nM
IC50 [2]: 79 nM

Structure (SMILES): Oc1cc(Cl)ccc1-c1nnc(N[C@@H]2CCCN(CCF)C2)c2cnccc12 [Example 85, (R)-5-chloro-2-(4-((1-(2-fluoroethyl)piperidin-3-yl)amino)pyrido[3,4-d]pyridazin-1-yl)phenol]
IC50 [1]: > 30000 nM
IC50 [2]: 2 nM

Structure (SMILES): Oc1ccccc1-c1nnc(N[C@@H]2CCCN(CCF)C2)c2cnccc12 [Example 86, (R)-2-(4-((1-(2-fluoroethyl)piperidin-3-yl)amino)pyrido[3,4-d]pyridazin-1-yl)phenol]
IC50 [1]: > 30000 nM
IC50 [2]: 21 nM

Structure (SMILES): Clc1ccc(-c2nnc(NC3CCCN(C4CC4)C3)c3ccncc23)cc1 (stereo not drawn) [Example 89, 4-(4-chlorophenyl)-N-(1-cyclopropylpiperidin-3-yl)pyrido[3,4-d]pyridazin-1-amine]
IC50 [1]: > 30000 nM
IC50 [2]: 91 nM

Structure (SMILES): CN1CCC[C@@H](Nc2nnc(-c3ccc(F)cc3O)c3ccncc23)C1 [Example 93, (R)-5-fluoro-2-(4-((1-methylpiperidin-3-yl)amino)pyrido[3,4-d]pyridazin-1-yl)phenol]
IC50 [1]: > 30000 nM
IC50 [2]: 30 nM

Structure (SMILES): Oc1cc(Cl)ccc1-c1nnc(NC23CCC(O)(CC2)C3)c2cnccc12 [Example 96, 4-((1-(4-chloro-2-hydroxyphenyl)pyrido[3,4-d]pyridazin-4-yl)amino)bicyclo[2.2.1]heptan-1-ol]
IC50 [1]: 26000 nM
IC50 [2]: 5 nM

Structure (SMILES): CN1CCCC(Nc2nnc(-c3ccc(Cl)cc3)c3ccccc23)C1 (stereo not drawn) [Example 113, 4-(4-chlorophenyl)-N-(1-methylpiperidin-3-yl)phthalazin-1-amine]
IC50 [1]: > 30000 nM
IC50 [2]: 47 nM

Structure (SMILES): C[C@]1(O)C[C@@H](Nc2nnc(-c3ccc(Cl)cc3)c3ccccc23)C1 [Example 118, cis-3-((4-(4-chlorophenyl)phthalazin-1-yl)amino)-1-methylcyclobutan-1-ol]
IC50 [1]: > 30000 nM
IC50 [2]: 334 nM

Structure (SMILES): O[C@H]1C[C@@H](Nc2nnc(-c3ccc(Cl)cc3)c3ccccc23)C1 [Example 122, cis-3-((4-(4-chlorophenyl)phthalazin-1-yl)amino)cyclobutan-1-ol]
IC50 [1]: > 30000 nM
IC50 [2]: 2300 nM

Structure (SMILES): OC12CCC(Nc3nnc(-c4ccc(Cl)cc4)c4ccccc34)(CC1)C2 [Example 127, 4-((4-(4-chlorophenyl)phthalazin-1-yl)amino)bicyclo[2.2.1]heptan-1-ol]
IC50 [1]: > 30000 nM
IC50 [2]: 228 nM

Structure (SMILES): CN1CCC[C@@H](Nc2nnc(-c3ccc(Cl)cc3)c3ccccc23)C1 [Example 139, (R)-4-(4-chlorophenyl)-N-(1-methylpiperidin-3-yl)phthalazin-1-amine]
IC50 [1]: > 30000 nM
IC50 [2]: 31 nM

Structure (SMILES): Clc1ccc(-c2nnc(NC3CCCN(C4CC4)C3)c3ccccc23)cc1 (stereo not drawn) [Example 144, 4-(4-chlorophenyl)-N-(1-cyclopropylpiperidin-3-yl)phthalazin-1-amine]
IC50 [1]: > 30000 nM
IC50 [2]: 43 nM

Structure (SMILES): CN1CC2CC2(Nc2nnc(-c3ccc(Cl)cc3)c3ccccc23)C1 (stereo not drawn) [Example 152, 4-(4-chlorophenyl)-N-(3-methyl-3-azabicyclo[3.1.0]hexan-1-yl)phthalazin-1-amine]
IC50 [1]: > 30000 nM
IC50 [2]: 490 nM

Structure (SMILES): Clc1ccc(-c2nnc(Nc3ccccc3)c3ccccc23)cc1 [Example 153, 4-(4-chlorophenyl)-N-phenylphthalazin-1-amine]
IC50 [1]: > 30000 nM
IC50 [2]: 2260 nM

Structure (SMILES): COc1ccc(-c2nnc(N[C@@H]3CCCN(C4CC4)C3)c3cnccc23)cc1 [Example 169, (R)—N-(1-cyclopropylpiperidin-3-yl)-1-(4-methoxyphenyl)pyrido[3,4-d]pyridazin-4-amine]
IC50 [1]: > 30000 nM
IC50 [2]: 7 nM

Structure (SMILES): COc1ccc(-c2nnc(N[C@@H]3C[C@@H](F)CN(C)C3)c3ccccc23)c(F)c1 [Example 178, N-((3R,5R)-5-fluoro-1-methylpiperidin-3-yl)-4-(2-fluoro-4-methoxyphenyl)phthalazin-1-amine]
IC50 [1]: > 30000 nM
IC50 [2]: 81 nM

Second part, the compound after the results:

IC50 [1]: > 30000 nM
IC50 [2]: 33 nM
Structure (SMILES): COc1ccc(-c2nnc(N[C@@H]3CCCN(CCF)C3)c3cnccc23)c(F)c1 [Example 87, (R)-1-(2-fluoro-4-methoxyphenyl)-N-(1-(2-fluoroethyl)piperidin-3-yl)pyrido[3,4-d]pyridazin-4-amine]

IC50 [1]: > 30000 nM
IC50 [2]: 8 nM
Structure (SMILES): Clc1ccc(-c2nnc(NC3CCCN(C4CC4)C3)c3cnccc23)cc1 (stereo not drawn) [Example 88, 1-(4-chlorophenyl)-N-(1-cyclopropylpiperidin-3-yl)pyrido[3,4-d]pyridazin-4-amine]

IC50 [1]: > 30000 nM
IC50 [2]: 10 nM
Structure (SMILES): C[C@]1(O)C[C@@H](Nc2nnc(-c3ccc(Cl)cc3O)c3ccncc23)C1 [Example 95, cis-5-chloro-2-(4-((-3-hydroxy-3-methylcyclobutyl)amino)pyrido[3,4-d]pyridazin-1-yl)phenol]

IC50 [1]: > 30000 nM
IC50 [2]: 3780 nM
Structure (SMILES): CN1CCCC(Nc2nnc(-c3ccc(Cl)cc3)c3ccccc23)C1=O (stereo not drawn) [Example 111, 3-((4-(4-chlorophenyl)phthalazin-1-yl)amino)-1-methylpiperidin-2-one]

IC50 [1]: > 30000 nM
IC50 [2]: 276 nM
Structure (SMILES): COc1ccc(-c2nnc(NC3CCCN(C)C3)c3ccccc23)cc1 (stereo not drawn) [Example 123, 4-(4-methoxyphenyl)-N-(1-methylpiperidin-3-yl)phthalazin-1-amine]

IC50 [1]: > 30000 nM
IC50 [2]: 1290 nM
Structure (SMILES): COc1ccc(-c2nnc(N[C@H]3C[C@@](C)(O)C3)c3ccccc23)cc1 [Example 124, cis-3-((4-(4-methoxyphenyl)phthalazin-1-yl)amino)-1-methylcyclobutan-1-ol]

IC50 [1]: > 30000 nM
IC50 [2]: 75 nM
Structure (SMILES): FCCN1CCCC(Nc2nnc(-c3ccc(Cl)cc3)c3ccccc23)C1 (stereo not drawn) [Example 140, 4-(4-chlorophenyl)-N-(1-(2-fluoroethyl)piperidin-3-yl)phthalazin-1-amine]

IC50 [1]: 23400 nM
IC50 [2]: 66 nM
Structure (SMILES): Clc1ccc(-c2nnc(NC3CCCN(Cc4ccccc4)C3)c3ccccc23)cc1 (stereo not drawn) [Example 155, N-(1-benzylpiperidin-3-yl)-4-(4-chlorophenyl)phthalazin-1-amine]

IC50 [1]: > 30000 nM
IC50 [2]: 18 nM
Structure (SMILES): CCN1CCCC(Nc2nnc(-c3ccc(Cl)cc3)c3ccccc23)C1 (stereo not drawn) [Example 162, 4-(4-chlorophenyl)-N-(1-ethylpiperidin-3-yl)phthalazin-1-amine]

IC50 [1]: > 30000 nM
IC50 [2]: 5 nM
Structure (SMILES): COc1ccc(-c2nnc(N[C@@H]3CCCN(C4(C)CC4)C3)c3cnccc23)cc1 [Example 168, (R)-1-(4-methoxyphenyl)-N-(1-(1-methylcyclopropyl)piperidin-3-yl)pyrido[3,4-d]pyridazin-4-amine]

IC50 [1]: > 30000 nM
IC50 [2]: 68 nM
Structure (SMILES): CCN1CCCC(Nc2nnc(-c3ccc(OC)cc3)c3ccccc23)C1 (stereo not drawn) [Example 171, N-(1-ethylpiperidin-3-yl)-4-(4-methoxyphenyl)phthalazin-1-amine]

IC50 [1]: > 30000 nM
IC50 [2]: 159 nM
Structure (SMILES): COc1ccc(-c2nnc(N[C@@H]3C[C@@H](F)CN(C)C3)c3cnccc23)cc1 [Example 174, N-((3R,5R)-5-fluoro-1-methylpiperidin-3-yl)-1-(4-methoxyphenyl)pyrido[3,4-d]pyridazin-4-amine]

IC50 [1]: > 30000 nM
IC50 [2]: 37 nM
Structure (SMILES): CN1C[C@H](F)C[C@@H](Nc2nnc(-c3ccc(Cl)cc3F)c3ccccc23)C1 [Example 176, 4-(4-chloro-2-fluorophenyl)-N-((3R,5R)-5-fluoro-1-methylpiperidin-3-yl)phthalazin-1-amine]

IC50 [1]: > 30000 nM
IC50 [2]: 53 nM
Structure (SMILES): COc1ccc(-c2nnc(N[C@@H]3C[C@@H](F)CN(C)C3)c3ccccc23)cc1 [Example 177, N-((3R,5R)-5-fluoro-1-methylpiperidin-3-yl)-4-(4-methoxyphenyl)phthalazin-1-amine]
